Results taken from US20100075854A1, “HERBICIDE COMBINATION COMPRISING DIMETHOSXYTRIAZINYL-SUBSTITUTED DIFLUOROMETHANESULFONYLANILIDES” (Bayer CropScience AG, priority 2008, published 2010).
Where two headings read alike, the source gives them in different places.

Columns and labels:
Assay in all cases: Post-emergence action, greenhouse pot test, visual scoring
Type in all cases: in vivo
[1] = system: Abuthilon theophrasti (ABUTH); conditions: Abutilon theophrasti, ABUTH, read-out: % activity found; for inhibition at 4 g/ha: 4 g of ai/ha; for inhibition at 12 g/ha: 12 g of ai/ha
Description: (§1) Seeds or rhizome pieces of mono- and dicotyledonous harmful and useful plants were placed in peat pots (diameter 4 cm) filled with sandy loam and then covered with soil. The pots were kept in a greenhouse under optimum conditions. In addition, harmful plants encountered in paddy rice cultivation were cultivated in pots with a water level 2 cm above the soil surface.
(§2) About three weeks after the start of the cultivation, the test plants were treated at the 2- to 3-leaf stage. The herbicides, formulated as powder or liquid concentrates, were, either alone or in the combinations according to the invention, sprayed in various dosages on to the green parts of the plants using an application rate of 600 l of water/ha (converted). For further cultivation of the plants, the pots were then again kept under optimum conditions in a greenhouse.
(§3) The visual scoring of the herbicidal effects was carried out in intervals up to 21 days after the treatment. Scoring was carried out in percent in comparison to the untreated control plants. 0%=no herbicidal activity, 100%=complete herbicidal activity=complete kill.
(§4) The percentages from the treatments with the herbicides alone (=individual application) and with the combinations according to the invention (=mixtures) were employed to calculate interactions using the method of Colby. When the observed efficacies of the mixtures exceed the formal sum of the values of the tests with individual applications, they also exceed the expected value according to Colby, which is calculated using the formula below (cf. S. R. Colby; in Weeds 15 (1967) pp. 20 to 22):
(§5) • A, B=activity of components A and B in percent at a dosage of a and b g of ai/ha (=gramm of active substance per hectare), respectively. • E=expected value in % at a dosage of a+b g of ai/ha.

[2] = system: Fallopia (ex Polygonum) convolvulus (POLCO); conditions: POLCO, read-out: % activity found; for inhibition at 4 g/ha: 4 g of ai/ha; for inhibition at 12 g/ha: 12 g of ai/ha
Description: as §1, §2, §3, §4, §5

[3] = system: Alopecurus myosuroides (ALOMY); conditions: 504 h, ALOMY, 21 DAT, read-out: % activity found
Description: as §1, §2, §3, §4, §5

[4] = system: Pharbitis purpurea (PHBPU); conditions: Ipomoea purpurea, PHBPU, read-out: % activity found; for inhibition at 4 g/ha: 4 g of ai/ha; for inhibition at 12 g/ha: 12 g of ai/ha
Description: as §1, §2, §3, §4, §5

[5] = system: Triticum aestivum (TRZAS); conditions: TRZAS, read-out: % activity found; for inhibition at 4 g/ha: 4 g of ai/ha; for inhibition at 12 g/ha: 12 g of ai/ha
Description: as §1, §2, §3, §4, §5

[6] = system: Matricaria inodora (MATIN); conditions: Tripleurospermum inodorum, MATIN, read-out: % activity found; for inhibition at 4 g/ha: 4 g of ai/ha
Description: as §1, §2, §3, §4, §5

Veronica persica (VERPE) = conditions: VERPE, read-out: % activity found; for inhibition at 12 g/ha: 12 g of ai/ha
Description: as §1, §2, §3, §4, §5

[7] = system: Cyperus esculentus (CYPES); conditions: CYPES, 21 DAT
Description: as §1, §2, §3, §4, §5

Avena fatua (AVEFA) = conditions: AVEFA, read-out: % activity found; for inhibition at 4 g/ha: 4 g of ai/ha; for inhibition at 12 g/ha: 12 g of ai/ha
Description: as §1, §2, §3, §4, §5

Viola tricolor (VIOTR) = conditions: VIOTR, read-out: % activity found; for inhibition at 4 g/ha: 4 g of ai/ha; for inhibition at 12 g/ha: 12 g of ai/ha
Description: as §1, §2, §3, §4, §5

[8] = system: Lolium multiflorum (LOLMU); conditions: read-out: % activity found; for inhibition at 4 g/ha: 4 g of ai/ha; for inhibition at 12 g/ha: 12 g of ai/ha
Description: as §1, §2, §3, §4, §5

Oryza sativa (ORYSA) = conditions: ORYSA, read-out: % activity found; for inhibition at 12 g/ha: 12 g of ai/ha
Description: as §1, §2, §3, §4, §5

Zea mays (ZEAMX) = conditions: ZEAMX, read-out: % activity found; for inhibition at 4 g/ha: 4 g of ai/ha; for inhibition at 12 g/ha: 12 g of ai/ha
Description: as §1, §2, §3, §4, §5

[9] = system: Amaranthus retroflexus (AMARE); conditions: AMARE, read-out: % activity found; for inhibition at 12 g/ha: 12 g of ai/ha
Description: as §1, §2, §3, §4, §5

COc1nc(OC)nc(C(=O)c2cccc(F)c2N(C)S(=O)(=O)C(F)F)n1 [A-1]
inhibition at 4 g/ha ([1]; 240 h, 10 DAT): 70% | inhibition at 12 g/ha ([1]; 240 h, 10 DAT): 70% | inhibition at 4 g/ha ([1]; 504 h, 21 DAT): 85% | inhibition at 12 g/ha ([1]; 504 h, 21 DAT): 85% | inhibition at 4 g/ha ([2]; 240 h, 10 DAT): 70% | inhibition at 12 g/ha ([2]; 240 h, 10 DAT): 70% | inhibition at 4 g/ha ([2]; 504 h, 21 DAT): 75% | inhibition at 12 g/ha ([2]; 504 h, 21 DAT): 70% | inhibition at 4 g/ha ([3]; 4 g of ai/ha): 40% | inhibition at 12 g/ha ([3]; 12 g of ai/ha): 50% | inhibition at 4 g/ha ([4]; 240 h, 10 DAT): 60% | inhibition at 12 g/ha ([4]; 240 h, 10 DAT): 60% | inhibition at 4 g/ha ([4]; 504 h, 21 DAT): 60% | inhibition at 12 g/ha ([4]; 504 h, 21 DAT): 65% | inhibition at 4 g/ha ([5]; 240 h, 10 DAT): 0% | inhibition at 12 g/ha ([5]; 240 h, 10 DAT): 0% | inhibition at 4 g/ha ([5]; 504 h, 21 DAT): 0% | inhibition at 12 g/ha ([5]; 504 h, 21 DAT): 0% | inhibition at 4 g/ha ([6]; 240 h, 10 DAT): 60% | inhibition at 4 g/ha ([6]; 504 h, 21 DAT): 50% | inhibition at 12 g/ha ([6]; 504 h, 21 DAT, 12 g of ai/ha): 60% | inhibition at 12 g/ha (Veronica persica (VERPE); 240 h, 10 DAT): 60% | inhibition at 4 g/ha (Veronica persica (VERPE); 504 h, 21 DAT, 4 g of ai/ha): 30% | inhibition at 12 g/ha (Veronica persica (VERPE); 504 h, 21 DAT): 40% | (7) % activity found ([7]; (5) dose of A-1 4, alone): 80% | (7) % activity found ([7]; (5) dose of A-1 12, alone): 80% | inhibition at 4 g/ha ([7]; Cyperus esculentus, 504 h, 4 g of ai/ha, read-out: % activity found): 80% | inhibition at 12 g/ha ([7]; Cyperus esculentus, 504 h, 12 g of ai/ha, read-out: % activity found): 80% | inhibition at 4 g/ha (Avena fatua (AVEFA); 240 h, 10 DAT): 40% | inhibition at 12 g/ha (Avena fatua (AVEFA); 240 h, 10 DAT): 50% | inhibition at 4 g/ha (Avena fatua (AVEFA); 504 h, 21 DAT): 10% | inhibition at 12 g/ha (Avena fatua (AVEFA); 504 h, 21 DAT): 30% | inhibition at 4 g/ha (Viola tricolor (VIOTR); 240 h, 10 DAT): 20% | inhibition at 12 g/ha (Viola tricolor (VIOTR); 240 h, 10 DAT): 20% | inhibition at 4 g/ha (Viola tricolor (VIOTR); 504 h, 21 DAT): 0% | inhibition at 12 g/ha (Viola tricolor (VIOTR); 504 h, 21 DAT): 10% | inhibition at 4 g/ha ([8]; 240 h, 10 DAT): 0% | inhibition at 12 g/ha ([8]; 240 h, 10 DAT): 10% | inhibition at 4 g/ha ([8]; 504 h, 21 DAT): 0% | inhibition at 12 g/ha ([8]; 504 h, 21 DAT): 10% | inhibition at 12 g/ha (Oryza sativa (ORYSA); 240 h, 10 DAT): 10% | inhibition at 4 g/ha (Oryza sativa (ORYSA); 504 h, 21 DAT, 4 g of ai/ha): 0% | inhibition at 12 g/ha (Oryza sativa (ORYSA); 504 h, 21 DAT): 10% | inhibition at 4 g/ha (Zea mays (ZEAMX); 240 h, 10 DAT): 0% | inhibition at 12 g/ha (Zea mays (ZEAMX); 240 h, 10 DAT): 0% | inhibition at 4 g/ha (Zea mays (ZEAMX); 504 h, 21 DAT): 0% | inhibition at 12 g/ha (Zea mays (ZEAMX); 504 h, 21 DAT): 0% | inhibition at 12 g/ha ([9]; 240 h, 10 DAT): 70% | inhibition at 4 g/ha ([9]; 504 h, 21 DAT, 4 g of ai/ha): 70% | inhibition at 12 g/ha ([9]; 504 h, 21 DAT): 75%
